Source: patent US10450260B2, “NO- and H2S-releasing compounds” (RESEARCH FOUNDATION OF THE CITY UNIVERSITY OF NEW YORK, priority 2011, dated 2019)

Test system: MDA-MB-231 (ER−) breast cancer cell xenograft
Experiment: MDA-MB-231 xenograft in athymic nude mice
Type: in vivo, mouse
From the text: Male athymic nude (NU/NU) mice, age 5 weeks, were purchased from Charles River Laboratories, Inc., (Wilmington, Mass.) and were housed according to institutional and NIH guidelines.
Human colon (SW480), Breast (MCF-7, MDA-MB-231), and pancreas (MIA PaCa2) cancer cells (2×10^6) suspended in Matrigel (BD Biosciences, San Jose, Calif.) 50% v/v were inoculated subcutaneously in the right flanks of each mouse (10 mice per group) using a 1-mL syringe and 22-gauge needles. After 10 days the animals from each implanted cell line were randomly divided into 2 groups (N=5/group) and gavaged daily with either vehicle (1% methylcelloluse) or NOSH-naproxen (100 mg/kg) or NOSH (100 mg/kg), the ADT-OH-butyl nitrate compound that releases H2S and NO, in the case of colon cancer xenografts; or NOSH-aspirin (100 mg/kg body weight) in the breast and pancreatic cancers groups. The tumor size was measured every other day using electronic calipers, the tumor volumes were calculated using the following formula: length×width^2/2. The weights of the mice were also recorded every 3 days. Twenty-seven (27) to thirty (30) days post inoculation, the mice were sacrificed, the tumors collected, weighed, and photographed.

O=C(CCCO[N+](=O)[O-])Oc1ccccc1C(=O)Oc1ccc(-c2cc(=S)ss2)cc1 [NOSH-1, 4-(3-thioxo-3H-1,2-dithiol-5-yl)phenyl 2-((4-(nitrooxy)butanoyl)oxy)benzoate]
mean tumor volume (100 mg/kg daily gavage, end of study, control 1886±200): 35±9 mm^3 | reduction of tumor mass (100 mg/kg daily, day 27, vs control): 91% | average tumor mass (100 mg/kg daily, day 27, control 1.2±0.33): 0.11 ± 0.058 g | mean reduction of tumor volume (100 mg/kg daily, vs control): 98%
